Assay: Moisture uptake by dynamic vapor sorption (DVS)
Format: physicochemical

mPEG7-O-naloxol phosphate salt
Hysteresis between adsorption and desorption (DVS) (desorption): no hysteresis | Moisture uptake, DVS isotherm curve (whole isotherm): continuous (exponential) moisture uptake from the start

From US9149539B1, “Crystalline naloxol-PEG conjugate” (priority 2010, dated 2015)
